1 molecule from article PMC5394417, “Investigating the molecular mechanism of positive and negative allosteric modulators in the calcium-sensing receptor dimer” (Scientific Reports, 2017) can be followed below.

Structures are written as SMILES.

The target in one experiment is T1, HA-F688A CaSR mutant (Rattus norvegicus, UniProt P48442, F688A).
T1 construct: mGluR5 signal peptide (N); expressed in transfected cells; host or cells: HEK293T
T1 sequence (P48442 20-1079 F688A): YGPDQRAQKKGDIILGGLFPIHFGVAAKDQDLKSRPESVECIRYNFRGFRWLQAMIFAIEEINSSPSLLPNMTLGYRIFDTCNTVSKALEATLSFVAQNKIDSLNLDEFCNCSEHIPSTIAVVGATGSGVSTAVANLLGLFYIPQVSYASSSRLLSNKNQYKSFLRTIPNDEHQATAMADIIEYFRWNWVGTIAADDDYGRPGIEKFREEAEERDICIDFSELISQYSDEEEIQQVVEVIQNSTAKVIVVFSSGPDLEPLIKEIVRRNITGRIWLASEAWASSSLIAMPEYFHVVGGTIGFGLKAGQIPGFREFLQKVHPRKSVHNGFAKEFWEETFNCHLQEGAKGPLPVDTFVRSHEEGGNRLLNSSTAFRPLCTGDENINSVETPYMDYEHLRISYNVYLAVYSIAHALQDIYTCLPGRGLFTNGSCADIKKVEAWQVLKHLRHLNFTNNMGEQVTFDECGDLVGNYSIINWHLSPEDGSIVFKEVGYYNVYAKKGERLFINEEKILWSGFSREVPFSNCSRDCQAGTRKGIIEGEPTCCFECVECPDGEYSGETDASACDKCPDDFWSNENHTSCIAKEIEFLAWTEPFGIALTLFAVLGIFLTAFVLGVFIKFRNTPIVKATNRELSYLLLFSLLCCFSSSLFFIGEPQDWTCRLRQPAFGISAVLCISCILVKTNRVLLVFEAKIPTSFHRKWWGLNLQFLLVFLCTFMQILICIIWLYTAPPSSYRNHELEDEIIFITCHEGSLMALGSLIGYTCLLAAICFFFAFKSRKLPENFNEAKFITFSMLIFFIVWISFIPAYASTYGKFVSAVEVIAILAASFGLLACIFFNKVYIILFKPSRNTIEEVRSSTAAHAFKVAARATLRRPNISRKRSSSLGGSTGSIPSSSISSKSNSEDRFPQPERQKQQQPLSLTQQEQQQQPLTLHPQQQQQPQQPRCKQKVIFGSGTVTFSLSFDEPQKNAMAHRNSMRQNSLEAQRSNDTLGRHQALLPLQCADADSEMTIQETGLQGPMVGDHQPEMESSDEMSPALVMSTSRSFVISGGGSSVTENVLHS
In words: IP-One assay, HEK293T transiently transfected. The format is cell-based.

The target in experiment [1] is T2, HA-F801A CaSR mutant (ICL3 mutant) (Rattus norvegicus, UniProt P48442, F801A).
T2 construct: mGluR5 signal peptide (N); expressed in transfected cells; host or cells: HEK293T
T2 sequence (P48442 20-1079 F801A): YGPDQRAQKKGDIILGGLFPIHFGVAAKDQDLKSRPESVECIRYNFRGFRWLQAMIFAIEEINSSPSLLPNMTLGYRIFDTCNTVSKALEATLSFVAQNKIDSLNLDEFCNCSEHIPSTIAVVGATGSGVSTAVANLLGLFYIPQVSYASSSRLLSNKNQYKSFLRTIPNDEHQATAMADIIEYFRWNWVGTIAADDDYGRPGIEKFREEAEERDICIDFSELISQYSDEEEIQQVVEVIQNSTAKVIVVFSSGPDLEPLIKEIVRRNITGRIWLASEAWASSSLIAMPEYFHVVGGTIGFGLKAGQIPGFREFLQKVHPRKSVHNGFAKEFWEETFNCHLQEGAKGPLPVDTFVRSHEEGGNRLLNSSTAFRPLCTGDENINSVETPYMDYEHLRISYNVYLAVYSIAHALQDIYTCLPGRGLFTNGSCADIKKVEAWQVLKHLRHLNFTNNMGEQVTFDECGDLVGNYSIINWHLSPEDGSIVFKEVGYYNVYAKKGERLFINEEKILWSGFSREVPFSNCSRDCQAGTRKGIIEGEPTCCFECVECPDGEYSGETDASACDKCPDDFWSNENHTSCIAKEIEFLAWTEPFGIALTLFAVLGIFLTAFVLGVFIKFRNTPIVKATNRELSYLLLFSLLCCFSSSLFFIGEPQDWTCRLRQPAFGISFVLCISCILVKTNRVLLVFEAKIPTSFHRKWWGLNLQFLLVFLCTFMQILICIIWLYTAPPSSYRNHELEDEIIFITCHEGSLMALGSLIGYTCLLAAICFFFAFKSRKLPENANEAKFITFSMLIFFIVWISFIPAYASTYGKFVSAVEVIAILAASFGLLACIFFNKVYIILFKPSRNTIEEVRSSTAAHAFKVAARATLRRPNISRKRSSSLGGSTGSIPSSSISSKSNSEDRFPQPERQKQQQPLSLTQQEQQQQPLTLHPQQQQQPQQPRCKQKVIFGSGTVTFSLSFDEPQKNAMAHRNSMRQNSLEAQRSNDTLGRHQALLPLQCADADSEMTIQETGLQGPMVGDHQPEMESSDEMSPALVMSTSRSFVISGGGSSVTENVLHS
In words: IP-One assay, HEK293T transiently transfected. The format is cell-based.

Consider `[Ca+2]` [Ca^2+], for which the EC50 (commonly the midpoint of the concentration-response curve) on HA-F688A CaSR mutant (Ca^2+ alone) was 6.11 mM; on HA-F688A CaSR mutant (Ca^2+ with 1 μM NPS R-568), 2.86 mM; on HA-F688A CaSR mutant (Ca^2+ with 5 μM NPS 2143), 8.31 mM; in experiment [1] (Ca^2+ alone) it was above 30 mM. Besides, the “pEC50 ± S.E.M.” value at HA-F688A CaSR mutant (Ca^2+ alone) was found to be 2.21 ± 0.01; at HA-F688A CaSR mutant (Ca^2+ with 1 μM NPS R-568), 2.54 ± 0.02; at HA-F688A CaSR mutant (Ca^2+ with 5 μM NPS 2143) it was 2.08 ± 0.01. The “Max ± S.E.M.” value turned out to be 86 ± 3.1% on HA-F688A CaSR mutant (Ca^2+ alone, normalized to maximum response of WT CaSR); 110 ± 9% on HA-F688A CaSR mutant (Ca^2+ with 1 μM NPS R-568, normalized to maximum response with Ca^2+ alone for the construct); 79 ± 6.9% on HA-F688A CaSR mutant (Ca^2+ with 5 μM NPS 2143, normalized to maximum response with Ca^2+ alone for the construct); 5.8 ± 0.4% in experiment [1] (normalized to maximum response of WT CaSR).
